US20120328602A1, “COMPOSITIONS AND METHODS FOR TREATING CONDITIONS ASSOCIATED WITH CERAMIDE BIOSYNTHESIS” (priority 2007, published 2012)
Like-named read-outs stand apart in the source and are kept apart here.

Assays:
neutral SMase = conditions: at 5 mM GSH; cited from earlier work
acid SMase = molecular target: T1, acid SMase (Homo sapiens, UniProt P17405); conditions: at 30 μM; cited from earlier work
T1 sequence (P17405 47-631): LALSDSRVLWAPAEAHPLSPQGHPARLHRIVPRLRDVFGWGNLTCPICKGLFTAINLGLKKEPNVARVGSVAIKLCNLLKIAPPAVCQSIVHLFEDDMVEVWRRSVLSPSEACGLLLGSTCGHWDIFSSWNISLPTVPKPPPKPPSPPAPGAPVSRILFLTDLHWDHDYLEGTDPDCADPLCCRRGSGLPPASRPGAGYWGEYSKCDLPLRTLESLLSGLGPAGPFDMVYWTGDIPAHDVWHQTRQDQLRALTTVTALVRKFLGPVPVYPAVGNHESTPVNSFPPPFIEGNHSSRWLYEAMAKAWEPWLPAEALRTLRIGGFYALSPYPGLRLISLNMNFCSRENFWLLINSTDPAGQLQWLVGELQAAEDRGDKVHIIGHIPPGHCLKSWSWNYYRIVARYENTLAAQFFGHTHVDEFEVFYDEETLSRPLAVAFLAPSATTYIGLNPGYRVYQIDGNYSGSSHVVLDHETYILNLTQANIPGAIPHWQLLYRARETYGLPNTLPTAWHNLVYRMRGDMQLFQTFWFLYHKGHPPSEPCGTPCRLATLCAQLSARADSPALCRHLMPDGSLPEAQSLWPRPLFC

mice [1] = assay type: in vivo; conditions: for responses to acute morphine in control groups vs control groups treated with drug: no repeated morphine; for development of antinociceptive tolerance: co-administration with morphine, i.p., FB1 1 mg/kg, myriocin 0.2 mg/kg, D609 40 mg/kg; for antinociceptive effects when tested alone: drug alone (not shown)
mice [2] = experiment: hot plate, morphine-induced antinociceptive tolerance (Examples 3-5); assay type: in vivo, Male CD-1 mice; conditions: for development of tolerance, dose-dependence: co-administered with morphine, FB1 0.1-1 mg/kg/d, myriocin 0.1-0.4 mg/kg/d, D609 10-40 mg/kg/d; for development of tolerance, dose-dependence / hot plate latencies following s.c. saline / difference in responses to acute morphine (0.3-3 mg/kg), drug vs vehicle: n=10; for hot plate latencies following s.c. saline: day five, highest dose of drug, no morphine; for difference in responses to acute morphine (0.3-3 mg/kg), drug vs vehicle: highest dose over five days: FB1 1 mg/kg/d, myriocin 0.4 mg/kg/d, D609 40 mg/kg/d; for antinociceptive effects when tested alone: highest dose; for % MPE: tolerant mice, single i.p. dose fifteen minutes before acute morphine 3 mg/kg: FB1 1 mg/kg, myriocin 0.4 mg/kg, D609 40 mg/kg, n=6
Description: Nociceptive thresholds were determined by measuring latencies (in seconds) of mice placed in a transparent glass cylinder on a hot plate (Ugo Basile, Italy) maintained at 52° C. Determination of antinociception was assessed between 7 and 10:00 A.M. All injections were given intra-peritoneally (i.p.) or subcutaneously (s.c.) in a volume of 0.1 and 0.3 ml, respectively, at approximately 7 A.M. and 4 P.M. Responses indicative of nociception included intermittent lifting and/or licking of the hindpaws or escape behavior. […] Results were expressed as percentage of maximum possible antinociceptive effect, which was calculated as follows: (response latency−baseline latency)/(cut-off latency−baseline latency)×100. A cut-off latency of twenty seconds was employed to prevent tissue damage. Ten mice per group were used and all experiments were conducted with the experimentors blinded to treatment conditions. […] The following experimental groups were used: […]
Vehicle (V) Group: In this group, mice were injected twice per day for four days with an i.p, injection of saline and a s.c. injection of saline.

[3] = molecular target: T2, acid sphingomyelinase (ASMase) (Mus musculus, UniProt Q04519); experiment: sphingomyelinase activity in spinal cord tissues, acid isoforms (Amplex Red kit); assay type: in vivo, mice; conditions: D609 40 mg/kg/d co-administered with morphine
T2 construct: spinal cord tissues were homogenized in buffers for each specific assay; from tissue; host or cells: mouse spinal cord homogenate (Na acetate pH 5.0 lysis buffer)
T2 sequence (Q04519 45-627): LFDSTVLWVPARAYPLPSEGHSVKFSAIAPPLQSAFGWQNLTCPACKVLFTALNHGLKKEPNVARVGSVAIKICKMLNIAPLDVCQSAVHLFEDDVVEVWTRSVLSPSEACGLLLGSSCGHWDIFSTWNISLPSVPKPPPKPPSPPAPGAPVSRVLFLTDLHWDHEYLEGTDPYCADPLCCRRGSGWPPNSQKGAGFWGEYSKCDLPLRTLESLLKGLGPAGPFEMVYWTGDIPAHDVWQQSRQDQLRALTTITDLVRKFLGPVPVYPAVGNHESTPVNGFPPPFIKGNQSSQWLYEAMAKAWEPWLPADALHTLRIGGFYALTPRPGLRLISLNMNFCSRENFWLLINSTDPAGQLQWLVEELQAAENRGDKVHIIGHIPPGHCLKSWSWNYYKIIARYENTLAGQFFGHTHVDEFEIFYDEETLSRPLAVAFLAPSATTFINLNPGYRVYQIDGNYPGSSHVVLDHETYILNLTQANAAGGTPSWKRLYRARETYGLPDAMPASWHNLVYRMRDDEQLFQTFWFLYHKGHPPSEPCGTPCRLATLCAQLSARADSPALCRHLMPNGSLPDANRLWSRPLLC
Description: Sphingomyelinase activity was measure using Amplex® Red Sphingomyelinase Assay Kit (Molecular Probes, Eugene, Oreg.) following manufacturer's instructions. […] For the acid isoforms, Na acetate (100 mM and pH 5.0) lysis buffer was used. 2 mM EDTA was added to the lysis buffer for detection of the insoluble isoform. For neutral isoform detection, the tissues were homogenized in Hepes (20 mM, pH 7.4) lysis buffer. The kinetics for sphingomyelinase activity was measured in a fluorescence microplate reader for two hours followed by normalization per protein concentration of the sample. Hydrogen peroxide and sphingomyelinase were used as positive controls.

mice [4] = experiment: Rotarod motor function test; assay type: in vivo; conditions: myriocin 0.4 mg/kg, FB1 1 mg/kg, D609 40 mg/kg; fifteen, thirty, and sixty minutes after administration; n=4; vs vehicle
Description: Mice were trained before experimentation for their ability to remain for one-hundred twenty seconds on a revolving Rotarod apparatus (accelerating units increase from 3.5 to 35 rpm in five minutes). Mice (n=4 per group) were injected with an i.p. injection of the highest dose of FB1 (1 mg/kg), myriocin (0.4 mg/kg), D609 (40 mg/kg) used to block antinociceptive tolerance or its vehicle. Mice (n=4 per group) were tested and examined for motor […] on the Rotarod at fifteen, thirty, and sixty minutes after drug administration as described in the method section. The latency time to fall off the Rotarod was determined. A cut-off time of one-hundred twenty seconds was used.

ceramide = experiment: immunohistochemistry for ceramide in spinal cord (Example 3); conditions: co-administered with morphine; FB1 1 mg/kg/d, myriocin 0.4 mg/kg/d, D609 40 mg/kg/d
[5] = test system: serine palmitoyl transferase (SPT); experiment: serine palmitoyl transferase (SPT) activity; assay type: in vivo, mice; conditions: co-administration of morphine with myriocin 0.4 mg/kg/d, n=10
Description: SPT activity was determined by measuring the incorporation of [^3H] serine into 3-ketosphinganine following the method previously described (Williams et al., 1984). The results were normalized by the samples' protein concentration.

Row | SMILES | inhibition of neutral SMase (neutral SMase) | inhibition of acid SMase (acid SMase) [%] | responses to acute morphine in control groups vs control groups treated with drug (mice [1]) | development of antinociceptive tolerance (mice [1]) | antinociceptive effects when tested alone (mice [1]) | development of tolerance, dose-dependence (mice [2]) | hot plate latencies following s.c. saline (mice [2]) | difference in responses to acute morphine (0.3-3 mg/kg), drug vs vehicle (mice [2]) | antinociceptive effects when tested alone (mice [2]) | % MPE (mice [2]) [%] | increased activity of ASMase [3] | Rotarod motor function deficits (mice [4]) | ceramide immunostaining (ceramide) | activation of SPT [5]
1 | N[C@@H](CCC(=O)N[C@@H](CS)C(=O)NCC(=O)O)C(=O)O [Glutathione] | greater than 95% |  |  |  |  |  |  |  |  |  |  |  |  | 
2 | COc1ccc(CCN(C)CCCOc2ccc(S(=O)(=O)c3c(C(C)C)cn4ccccc34)cc2)cc1OC [SR33557] |  | 72 |  |  |  |  |  |  |  |  |  |  |  | 
3 | S=C([S-])OC1CC2CC1C1CCCC21.[K+] (stereo not drawn) [D609, tricyclodecan-9-xanthogenate] |  |  | similar | blocked antinociceptive tolerance | no antinociceptive effects | blocked in a dose-dependent manner | six and seven | statistically insignificant | none of FB1, myriocin, or D609 had antinociceptive effects | 11±2 | blocked the increased activity of ASMase | did not show signs of Rotarod deficits | blocked | 
4 | CCCCCCC(=O)CCCCCC/C=C/C[C@@H](O)[C@H](O)[C@@](N)(CO)C(=O)O [myriocin] |  |  | similar | blocked antinociceptive tolerance | no antinociceptive effects | blocked | six and seven | statistically insignificant | none of FB1, myriocin, or D609 had antinociceptive effects | 13±2 |  | did not show signs of Rotarod deficits | blocked | blocked, as expected, the activation of SPT
